Reference: ChEMBL document CHEMBL1275297, “Homology modeling and molecular dynamics of CYP1A1 and CYP2B1 to explore the metabolism of aryl derivatives by docking and experimental assays” (Eur J Med Chem, 2010)

Tests used:
[1] = target: T1, Cytochrome P450 2B1 (Rattus norvegicus, UniProt P00176); test: Binding affinity to rat CYP2B1; type: ADME
T1 sequence (P00176 whole entry): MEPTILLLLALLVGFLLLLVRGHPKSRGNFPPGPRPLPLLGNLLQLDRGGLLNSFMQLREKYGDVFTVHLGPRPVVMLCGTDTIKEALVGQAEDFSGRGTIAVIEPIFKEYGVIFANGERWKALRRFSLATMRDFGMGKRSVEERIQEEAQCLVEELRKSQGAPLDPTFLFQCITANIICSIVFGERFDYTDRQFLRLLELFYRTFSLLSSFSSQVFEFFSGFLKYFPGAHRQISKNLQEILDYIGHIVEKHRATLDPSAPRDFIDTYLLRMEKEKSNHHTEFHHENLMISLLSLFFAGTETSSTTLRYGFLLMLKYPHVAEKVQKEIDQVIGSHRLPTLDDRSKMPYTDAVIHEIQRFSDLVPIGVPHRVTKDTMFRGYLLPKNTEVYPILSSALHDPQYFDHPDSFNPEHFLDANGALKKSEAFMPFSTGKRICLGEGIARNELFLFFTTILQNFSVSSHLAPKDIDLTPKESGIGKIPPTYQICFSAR

[2] = Binding affinity to human CYP1A1-heme complex
[3] = Binding affinity to rat CYP2B1-heme complex
[4] = target: T2, Cytochrome P450 1A1 (Homo sapiens, UniProt P04798); test: Binding affinity to human CYP1A1; type: ADME
T2 sequence (P04798 whole entry): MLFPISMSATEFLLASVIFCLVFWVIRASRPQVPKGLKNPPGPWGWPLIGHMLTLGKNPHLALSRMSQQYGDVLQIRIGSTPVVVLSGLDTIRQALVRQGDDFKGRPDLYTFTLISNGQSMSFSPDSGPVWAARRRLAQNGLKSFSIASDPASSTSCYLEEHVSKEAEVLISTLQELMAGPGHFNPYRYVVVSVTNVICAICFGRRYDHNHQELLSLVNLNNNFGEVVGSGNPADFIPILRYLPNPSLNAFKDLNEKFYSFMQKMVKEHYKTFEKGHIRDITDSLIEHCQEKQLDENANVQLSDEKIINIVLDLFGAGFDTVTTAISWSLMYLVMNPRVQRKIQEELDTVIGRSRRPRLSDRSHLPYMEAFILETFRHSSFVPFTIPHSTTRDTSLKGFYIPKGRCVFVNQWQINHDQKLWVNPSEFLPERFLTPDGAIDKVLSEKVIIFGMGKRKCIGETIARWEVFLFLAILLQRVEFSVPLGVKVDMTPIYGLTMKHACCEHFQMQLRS

Kd [1] | Kd [2] | Kd [3] | Kd [4] | Compound
1.12 µM | 0.789 µM | 1.77 µM | 2.25 µM | O=C(O)CCC(=O)Nc1ccc(O)cc1
24 µM | 3.96 µM | 1.57 µM | 13.5 µM | O=C1CCC(=O)N1c1ccc(O)cc1

Compound | Kd [1] | Kd [2] | Kd [3] | Kd [4]
CC(=O)Nc1ccc(O)cc1 [ACETAMINOPHEN] | – | 5.79 µM | 6.64 µM | 19.1 µM
